“Also recorded” adds a separate entry of the source. Ends that are not written are not given here. * marks the point of attachment. Biotin = O=C1N[C@H]2[C@H](CS[C@H]2CCCCC(=O)*)N1
Tests used:
[1] = system: E. coli K-12 MG1655; assay: E. coli growth inhibition (growth curves, OD595); type: cell-based; conditions: 22.4 µM, approx. 10^7 CFU/ml, LB medium, 37°C with shaking, OD595 every 20 min for 7 h 20 min, PBS negative control, Figure 2
Protocol: The E. coli K-12 MG1655 strain was first inoculated into LB medium and incubated at 37°C with shaking for 16 h. After incubation, the culture was diluted to approximately 10^7 CFU/ml using LB medium. Then, 22.4 µM of N-terminal biotinylated LfcinB (Kelowna Inc.), LfcinB (Kelowna Inc.) or biotin (Thermo) were individually added to the diluted cultures in a 96-well plate. PBS was used as a negative control. Finally, each compound or PBS with E. coli was incubated at 37°C with shaking and the growth curves were observed by measuring the OD595 value every 20 min for 7 h 20 min in a microplate reader (Synergy 2, BioTek®).

[2] = system: E. coli K-12 proteins (E. coli proteome chip); assay: E. coli proteome chip assay; type: binding; conditions: 10 nM N-terminal biotinylated LfcinB, 1% BSA, room temperature, 1 h; ratio DyLight 649 to DyLight 549, ProCAT local cut-off; triplicate
Protocol: To fabricate the proteome chips, E. coli K-12 proteins were expressed and purified in a high-throughput fashion. The procedure was modified from Chen et al.. Briefly, E. coli protein expression clones fused with a 6×-His tag, provided by Dr. Mori, were first incubated with glass beads (Biospec Products Inc.) in 2× LB medium containing 30 µg/ml chloramphenicol in 96 DeepWell™ plates (Nunc) at 37°C overnight. The overnight cultures were then diluted with 2× LB that contains 30 µg/ml chloramphenicol to the OD595 value of 0.1. When the cells grew to an OD595 value of 0.7–0.9, 500 µM of isopropyl β-D-thiogalactoside (IPTG) was added to induce protein expression at 37°C for ∼3.5 h. The cultures were then harvested by centrifugation at 3220 g for 5 min at 4°C, and the pellets were stored at −80°C before purification. […]
For image processing of chip assay results, Genepix Pro 6.0 was used to align the protein spot of each individual protein and then all aligned protein image signals were exported as a text file. The text file was analyzed by ProCAT [17], a signal normalization method. The relative ability of LfcinB to bind to each protein was estimated by the ratio of the fluorescence intensity of LfcinB to the fluorescence intensity of an anti-His antibody after the normalization. […]

Row | Compound | growth curves / inhibition of E. coli growth [1] | number of proteins selected as LfcinB-binding (top 5% of the E. coli proteome, membrane proteins ruled out) [2] [proteins]
1 | O=C(O)CCCC[C@@H]1SC[C@@H]2NC(=O)N[C@@H]21 [biotin, reference compound] | had no influence on E. coli growth | –
2 | biotinylated LfcinB: N-terminal biotinylated LfcinB (Kelowna Inc.), used as probe in chip assays (Biotin-FKCRRWQWRMKKLGAPSITCVRRAF; ends and bridges not checked) | exhibited the same inhibition of E. coli growth; also recorded: exhibit the same antibacterial activity | 153

Source: PMC3229523, “Identification of Lactoferricin B Intracellular Targets Using an Escherichia coli Proteome Chip” (PLoS ONE, 2011)
